Measured values from publication PMC11156899, “High-throughput screening unveils nitazoxanide as a potent PRRSV inhibitor by targeting NMRAL1” (Nature Communications, 2024).
“And” between values parts separate entries of the source, which are not always exact repeats. Equal entries are not always repeated. Where two headings read alike, the source gives them in different places.

Assays:
PRRSV (GSWW-18 strain) = assay: Anti-PRRSV dose-response (EC50, IFA) in PAM cells; format: cell-based, Porcine Reproductive and Respiratory Syndrome Virus; settings: Porcine reproductive and respiratory syndrome virus
[1] = test system: Porcine alveolar macrophages (PAM); assay: Cytotoxicity assay (CC50) in PAM cells
Experimental: (§1) A concentration-gradient screening strategy was employed for 141 compounds using indirect immunofluorescence assay (IFA). […] Data are mean ± SEM.
(§2) Cells were seeded in 96-well plates and grown in DMEM supplemented with 10% FBS. Upon reaching confluence, compounds were diluted to varying concentrations in 2% FBS-containing medium. Control wells contained DMEM with 0.5% DMSO. Treated cells were incubated at 37 °C in a 5% CO2 humidified environment for 48 or 72 h, followed by cytotoxicity assessment as outlined in our previous work[21]. […]

[2] = test system: PRRSV GSWW-18 strain in Marc-145 cells; settings: reason for exclusion before third round
Experimental: Subsequently, a second-round screening of the selected 141 compounds was conducted on Marc-145 cells using immunofluorescence assay (IFA) at four different dosage levels (Fig. 2a; Supplementary Fig. 2).
as §1
(1 picture or pasted object on this page, not shown here)

PRRSV GSWW-18 strain = assay: In vivo antiviral effect in swine infected with GSWW-18 strain; parameters: species or system pig
[3] = Cytotoxicity assay (CC50) in PAM cells; settings: pig, porcine alveolar macrophages (PAM cells)
Experimental: as §1, §2

[4] = Pharmacokinetics and tissue distribution of TIZ in swine after oral NTZ; format: in vivo, pig
Experimental: Fig. 4 NTZ inhibition of PRRSV shedding and transmission. a Viral load in blood, and shedding in oronasal and anal swabs. Viral load or shedding in blood and oronasal swabs were quantified from 2 to 4 dpi, and in anal swabs from 2 to 5 dpi. Viral copy numbers for each pig during this period are presented. b NTZ suppression of PRRSV proliferation in blood. 48 h post infection (infected with 1 × 10^5.5 TCID50 of GSWW-18 strain), pigs were orally administered NTZ at 10 mg/kg or 5 mg/kg at 0 h and 12 h, followed by blood collection via anterior vena cava or ear marginal vein. […] Parameters were calculated using a non-compartmental analysis (NCA). Eighteen pigs were evenly divided into three dosage groups (n = 6), each housed separately, fasted for 12 h before the experiment, and monitored by professional veterinarians for welfare and enclosure cleaning to prevent coprophagia. g Tissue distribution of NTZ’s main metabolite TIZ. Tissues were collected as per Method Pharmacokinetics and Tissue Distribution of NTZ, quantifying TIZ content at various times (n = 2). […] Symbols represent three or six independent biological replicates (a, b, f) Scatter plots (a, f) show mean ± SD values of samples, with P-values as indicated, calculated via two-way ANOVA with Dunnett’s multiple-comparison test (a), P-values < 0.0332 were considered significant. […]

NMRAL1 = NMRAL1 (Chlorocebus sabaeus, UniProt A0A0D9R9W0); assay: Surface plasmon resonance, immobilized NMRAL1; format: binding; settings: SPR
Experimental: For SPR, the Biacore T200 system (Cytiva) was used to assess binding affinity and kinetics. The Series S Sensor Chip CM5 (BR100530, Cytiva) immobilized 13,000 resonance units (RU) of NMRAL1 (50 μg/ml, pH 4.0, 10 μl/min, 25°C). TIZ (10 to 0.3125 μM) dissolved in a 5% DMSO running buffer (1.05 × HBS-EP+, Cytiva) was applied, with a solvent correction fluid gradient of 4.5–5.8% DMSO. Contact time was set to 120 s for binding and 300 s for dissociation. Post-experiment, data were analyzed using Biacore T200 Evaluation Software 3.0 with Affinity Fit 1:1 Binding model.

NSP12 = assay: Surface plasmon resonance, NSP12 purified in vitro; format: binding, PRRSV GSWW-18 strain
Description: Supplementary Fig. 10: The Affinity of Nsp1α and Nsp12 with TIZ is Lower Than That of NMRAL1.
(a) The KD value of NMRAL1 obtained through the Affinity fit model.
(b) The KD value of Nsp1α determined using the Kinetics fit model.
(c) The KD value of Nsp1α obtained through the Affinity fit model.
'FT' is the flow-through after passing through the Ni column. 'Ni-200' and 'Ni-500' represent different purification conditions with varying concentrations. 'L2' is the total cell lysate after changing the expression conditions. 'S2' is the supernatant after cell lysis with changed expression conditions. The portions highlighted in red boxes indicate the target protein. […]
constant (KD) between Nsp1α and TIZ is lower than that of NMRAL1. We observe that […]
attempting different systems (Fig. R5 e-h). Although SPR confirms the interaction […]
possibly be attributed to the abnormal protein conformation of NSP12 purified by IBs.
The existing data also indicate that the early addition of NTZ produces a more pronounced antiviral effect (Extended Data Fig. 9), and the overexpression of NMRAL1 can almost negate the antiviral action of NTZ. This leads us to speculate that NMRAL1 may be one of the primary targets of NTZ's mechanism of action, while Nsp1α and NSP12 may serve as secondary targets.
Fig.R5 Validation of the binding between Nsp1α and Nsp12 with TIZ through SPR,

[5] = third round of screening, PAM cells
[6] = PAM cells, mean ± SEM, n = 2, unit only on axis title, read-out: EC50

Sequence of NMRAL1 (A0A0D9R9W0 entry or part of it): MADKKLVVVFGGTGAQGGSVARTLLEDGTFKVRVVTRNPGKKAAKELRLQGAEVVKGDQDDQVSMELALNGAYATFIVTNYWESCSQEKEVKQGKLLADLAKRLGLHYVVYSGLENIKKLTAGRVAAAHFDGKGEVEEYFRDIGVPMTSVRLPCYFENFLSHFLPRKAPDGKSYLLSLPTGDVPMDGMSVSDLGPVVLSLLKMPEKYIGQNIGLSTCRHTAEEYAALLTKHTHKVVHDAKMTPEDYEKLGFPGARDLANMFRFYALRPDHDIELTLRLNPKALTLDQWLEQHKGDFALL

Q: Which EC50 (PRRSV (GSWW-18 strain)) does the source give for `CC(=O)c1ccc2c(c1)N(CCCN1CCN(CCO)CC1)c1ccccc1S2` [Acetophenazine] here?
A: The EC50 was 718 ± 224 nM.

Q: What about the “cytotoxicity (in words)” value [1, 5] of the same molecule?
A: Its value is “low cytotoxicity”.

Q: With `C[C@H]1O[C@@H](O[C@H]2CC[C@@]3(C)[C@H](CC[C@@H]4[C@@H]3C[C@@H](O)[C@]3(C)[C@@H](C5=CC(=O)OC5)CC[C@]43O)C2)C[C@H](O)[C@@H]1O[C@H]1C[C@H](O)[C@H](O[C@H]2C[C@H](O)[C@H](O[C@@H]3O[C@H](CO)[C@@H](O)[C@H](O)[C@H]3O)[C@@H](C)O2)[C@@H](C)O1` [Deslanoside] as the molecule, how does the “cytotoxicity (in words)” value [2] read?
A: The value was “high cytotoxicity”.

Q: With `CN1CCC(=C2c3ccccc3CCc3sccc32)CC1` [Pizotifen] as the molecule, how does the EC50 (PRRSV (GSWW-18 strain); [6]) read?
A: The EC50 was 541 ± 140 nM.

Q: And the “cytotoxicity (in words)” value [1]?
A: Its value is “low cytotoxicity”.

Q: What does the source list for `CN(C)CCCOc1nn(Cc2ccccc2)c2ccccc12` [Benzydamine]?
A: EC50 (PRRSV (GSWW-18 strain); [6]): 2010 ± 469 nM; cytotoxicity (in words) [1]: low cytotoxicity

Q: With `CCC(CC)COC(=O)[C@H](C)N[P@](=O)(OC[C@H]1O[C@@](C#N)(c2ccc3c(N)ncnn23)[C@H](O)[C@@H]1O)Oc1ccccc1` [Remdesivir] as the molecule, how does the EC50 (PRRSV (GSWW-18 strain); [6]) read?
A: Its EC50 is 4990 ± 2370 nM.

Q: And the “cytotoxicity (in words)” value [1]?
A: The value was “low cytotoxicity”.

Q: Which results are given for `NC(=O)c1ncn([C@@H]2O[C@H](CO)[C@@H](O)[C@H]2O)n1` [RBV, Ribavirin]?
A: viral load and shedding, setting of efficacy (PRRSV GSWW-18 strain; blood, oronasal and anal swabs): effective only in the prophylactic setting; efficacy against PRRSV in swine (PRRSV GSWW-18 strain; positive control group): appeared to lack efficacy

Q: For `COc1c(C)c2c(c(O)c1C/C=C(\C)CCC(=O)O)C(=O)OC2` [Mycophenolic acid], which EC50 (PRRSV (GSWW-18 strain); [6]) is on record?
A: The EC50 was 305 ± 67 nM.

Q: Which EC50 (PRRSV (GSWW-18 strain); [6]) does the source give for `CN(C/C=C/C#CC(C)(C)C)Cc1cccc2ccccc12` [Terbinafine] here?
A: The EC50 was 1220 ± 328 nM.

Q: And the “cytotoxicity (in words)” value [1]?
A: Its value is “low cytotoxicity”.

Q: For `CN(Cc1cnc2nc(N)nc(N)c2n1)c1ccc(C(=O)N[C@@H](CCC(=O)O)C(=O)O)cc1` [Methotrexate], which EC50 (PRRSV (GSWW-18 strain); [6]) is on record?
A: Its EC50 is 307 ± 316 nM.

Q: What about the CC50 [3] of the same molecule?
A: The CC50 was 6830 ± 2250 nM.

Q: For `CCN(CC)CCCC(C)Nc1ccnc2cc(Cl)ccc12` (stereo not shown) [Chloroquine], which EC50 (PRRSV (GSWW-18 strain); [6]) is on record?
A: Its EC50 is 1520 ± 475 nM.

Q: What about the “cytotoxicity (in words)” value [1, 5] of the same molecule?
A: The value was “low cytotoxicity”.

Q: For `CS(=O)(=O)CCNCc1ccc(-c2ccc3ncnc(Nc4ccc(OCc5cccc(F)c5)c(Cl)c4)c3c2)o1` [Lapatinib], which EC50 (PRRSV (GSWW-18 strain); [6]) is on record?
A: Its EC50 is 1770 ± 535 nM.

Q: What about the CC50 [3] of the same molecule?
A: Its CC50 is 9510 ± 243 nM.

Q: Which results are given for `O=C(Nc1ncc([N+](=O)[O-])s1)c1ccccc1O` [TIZ, Tizoxanide]?
A: tissue distribution ([4]; pig tissues after oral NTZ, n = 2): primarily distributed in small and large intestines, MesLNs, ILNs, but not in high concentrations in lungs; Tmax ([4]; pig, in vivo, po, 25 mg/kg): 2.167 h; affinity compared between proteins (NMRAL1; NMRAL1 vs NSP1α and NSP12): higher than that of NSP1α and NSP12; Kd (NMRAL1; legend of Fig. 6o, Supplementary Fig. 10a (Affinity fit model)): 4500 nM; Kd (NMRAL1; value printed in Fig. 6o with ka and kd): ~2870 nM and 2870 nM; kon (NMRAL1; read-out: ka): 2380 M⁻¹ s⁻¹; koff (NMRAL1; read-out: kd): 0.00683 s⁻¹; interaction with NSP12 (SPR) (NSP12): weak interaction

Q: With `CCN(CCO)CCCC(C)Nc1ccnc2cc(Cl)ccc12` (stereo not shown) [Hydroxychloroquine] as the molecule, how does the EC50 (PRRSV (GSWW-18 strain); [6]) read?
A: Its EC50 is 1090 ± 187 nM.

Q: What about the “cytotoxicity (in words)” value [1] of the same molecule?
A: Its value is “low cytotoxicity”.

Q: Which EC50 (PRRSV (GSWW-18 strain); [6]) does the source give for `Nc1ccn([C@@H]2O[C@H](CO)[C@@H](O)C2(F)F)c(=O)n1` [Gemcitabine] here?
A: The EC50 was 109 ± 29 nM.
